Experimental data taken from PubChem BioAssay AID1963835 (Molecular Pharmacology Branch, DTP, NCI, 2024).
pIC50: −log10 of the molar value. Several values for one entry are separate records, joined by “and”; a condition that tells them apart may be missing. Equal values may be shown once.

System: 699152-130-R-J1-PDC complex spheroid viability
Test: Anticancer human tumor 699152-130-R-J1-PDC patient-derived pancreatic carcinoma cell line growth inhibition [POLQ]
Settings: for viability, T/C: stronger effect = lower value
Procedure: Multicellular complex tumor spheroid response to Polymerase (POL) inhibitors (novobiocin, ART-558, RP6685) in combination with a variety of drugs and investigational agents in selected tumor cell lines
The POL inhibitors (novobiocin, ART-558, and RP6685) were evaluated both individually and in combination with standard of care and investigational anticancer small molecules within a complex spheroid model of solid tumors. . Complex spheroids include a stromal component modeled by human endothelial cells (HUVEC) and fibroblasts modeled by human mesenchymal stem cells (MSCs). The concentration ranges selected for each drug and investigational agent were based upon clinically achievable concentrations if the clinical Cmax of the agent was known.
Compounds. The drugs and investigational agents: novobiocin (NSC847541), ART-558 (NSC835418), RP-6685 (NSC848927), peposertib (NSC802822), ceralasertib (NSC780249), elimusertib (NSC800525), camonsertib (NSC841442), AZD-1390 (NSC803789), olaparib (NSC753686), talazoparib (NSC767125), rucaparib (NSC756644), sotorasib (NSC818433), MRTX-1133 (NSC836407), SN-38 (NSC673596), topotecan (NSC609699), epotoside (NSC141540), doxorubicin (NSC123127), gemcitabine (NSC613327), 5-fluorouracil (NSC19893), paclitaxel (NSC125973), vemurafenib (NSC761431), MSA-2 (NSC828583), SN-011 (NSC837082), adavosertib (NSC754352), prexasertib (NSC758257), carboplatin (NSC241240) and oxaliplatin (NSC266046), were obtained from the National Cancer Institute (NCI) Developmental Therapeutics Program Chemical Repository (21). The FDA-approved anticancer drug set is available from the Developmental Therapeutics Program at https://dtp.cancer.gov/organization/dscb/obtaining/. […] The stock solutions were prepared in dimethyl sulfoxide (DMSO, Sigma-Aldrich, St. Louis, MO, cat. D2650), except for the platinum compounds which were prepared in saline (Quality Biological, Gaithersburg, MD, cat. 114-055-101), at 800-fold the tested concentration and stored at -70 degrees C prior to their use. All drugs and investigational agents were tested over a range starting from a high concentration at or near the clinical Cmax and decreasing in half-log increments. If the clinical Cmax for an agent had not been determined, the highest concentration tested was 10 microM, except for SN-38, which was tested at a high concentration of 1 microM.
Cell Culture. All cells were maintained in an incubator at 37 degrees C and 5% CO2 with 95% humidity. The PDC lines were cultured according to standard operating procedures established by the NCI PDMR (https://pdmr.cancer.gov). Table 3 of the manuscript, lists the cell lines along with the number of the three cell types plated to form the mct-spheroids and media for tumor cell growth. After thawing, all PDC lines, except 997537-175-T-J1-PDC and 415267-285-R-J2-PDC, were cultured in Matrigel-coated flasks prepared with a working solution of 1X Ham's F-12 nutrient mix, without supplementation (Thermo Fisher Scientific, cat. 11765054), 100 U/mL penicillin-streptomycin (Thermo Fisher Scientific, cat. 15140122), and 2.5% Matrigel (Corning Inc., Corning, NY, cat. 354248) for the first three passages. The two PDC lines 997537-175-T-J1-PDC and 415267-285-R-J2-PDC were cultured on uncoated flasks. The 857933-349-R-J2-PDC line was cultured in 6C/Colon 1B media containing advanced DMEM/F-12 (Thermo Fisher Scientific, cat. 12634028), 10 mM HEPES (Thermo Fisher Scientific, cat. 15630080), 1X GlutaMAX supplement (Thermo Fisher Scientific, cat. 35050061), 0.1 mg/mL primocin (InvivoGen, San Diego, CA, cat. ant-pm-2), 10% defined fetal bovine serum, heat inactivated (HyClone Laboratories Inc., Logan, UT, cat. SH30070.03HI), 50% L-WRN conditioned media (ATCC, cat. CRL-3276), 1.25 mM N-Acetyl-L-cysteine (Sigma-Aldrich, cat. A9165), 10 mM nicotinamide (Sigma-Aldrich, cat. N0636), 1X B-27 supplement (Thermo Fisher Scientific, cat. 17504044), 1X N-2 supplement (Thermo Fisher Scientific, cat. […]
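Further: spheroids exposed to agents for 7 days before viability reading.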
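Wherever viability, T/C is given: percent of DMSO vehicle control viability so 100% = vehicle and 0% = no viable signal.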

## COc1cc(C2c3cc4c(cc3C(OC3OC5COC(C)OC5C(O)C3O)C3COC(=O)C23)OCO4)cc(OC)c1O (configuration not stated) + Nc1ccc(C#CCN(C(=O)Cc2ncc(C(F)(F)F)cc2C(F)(F)F)c2ccc(F)cc2)nn1
Curve of first compound, second compound 0.0316 µM
  pIC50: 5.01
Curve of first compound, second compound 0.1 µM
  pIC50: 5.25
Curve of first compound, second compound 0.316 µM
  pIC50: 5.41
Curve of first compound, second compound 1 µM
  pIC50: 5.37
Curve of first compound, second compound 3.16 µM
  pIC50: 5.20
Curve of first compound, second compound 10 µM
  pIC50: 5.08
Second compound 0.0316 µM, first compound 0.0316 µM
  viability, T/C: 85.2%
Second compound 0.0316 µM, first compound 0.1 µM
  viability, T/C: 84.2%
Second compound 0.0316 µM, first compound 0.316 µM
  viability, T/C: 79.5%
Second compound 0.0316 µM, first compound 1 µM
  viability, T/C: 76.3%
Second compound 0.0316 µM, first compound 3.16 µM
  viability, T/C: 53.9%
Second compound 0.0316 µM, first compound 10 µM
  viability, T/C: 50.1%
Second compound 0.1 µM, first compound 0.0316 µM
  viability, T/C: 105%
Second compound 0.1 µM, first compound 0.1 µM
  viability, T/C: 89%
Second compound 0.1 µM, first compound 0.316 µM
  viability, T/C: 77.9%
Second compound 0.1 µM, first compound 1 µM
  viability, T/C: 70.5%
Second compound 0.1 µM, first compound 3.16 µM
  viability, T/C: 52.5%
Second compound 0.1 µM, first compound 10 µM
  viability, T/C: 44.9%
Second compound 0.316 µM, first compound 0.0316 µM
  viability, T/C: 108%
Second compound 0.316 µM, first compound 0.1 µM
  viability, T/C: 90.6%
Second compound 0.316 µM, first compound 0.316 µM
  viability, T/C: 79.8%
Second compound 0.316 µM, first compound 1 µM
  viability, T/C: 69.1%
Second compound 0.316 µM, first compound 3.16 µM
  viability, T/C: 48.1%
Second compound 0.316 µM, first compound 10 µM
  viability, T/C: 41.2%
Second compound 1 µM, first compound 0.0316 µM
  viability, T/C: 92.2%
Second compound 1 µM, first compound 0.1 µM
  viability, T/C: 81.9%
Second compound 1 µM, first compound 0.316 µM
  viability, T/C: 78%
Second compound 1 µM, first compound 1 µM
  viability, T/C: 74.9%
Second compound 1 µM, first compound 3.16 µM
  viability, T/C: 49.6%
Second compound 1 µM, first compound 10 µM
  viability, T/C: 48.8%
Second compound 3.16 µM, first compound 0.0316 µM
  viability, T/C: 103%
Second compound 3.16 µM, first compound 0.1 µM
  viability, T/C: 85%
Second compound 3.16 µM, first compound 0.316 µM
  viability, T/C: 81%
Second compound 3.16 µM, first compound 1 µM
  viability, T/C: 69.2%
Second compound 3.16 µM, first compound 3.16 µM
  viability, T/C: 53.1%
Second compound 3.16 µM, first compound 10 µM
  viability, T/C: 46.8%
Second compound 10 µM, first compound 0.0316 µM
  viability, T/C: 115%
Second compound 10 µM, first compound 0.1 µM
  viability, T/C: 85.6%
Second compound 10 µM, first compound 0.316 µM
  viability, T/C: 89.4%
Second compound 10 µM, first compound 1 µM
  viability, T/C: 65.8%
Second compound 10 µM, first compound 3.16 µM
  viability, T/C: 53%
Second compound 10 µM, first compound 10 µM
  viability, T/C: 50.7%

## COc1cc(C2c3cc4c(cc3C(OC3OC5COC(C)OC5C(O)C3O)C3COC(=O)C23)OCO4)cc(OC)c1O (configuration not stated)
Compound 0.0316 µM
  viability, T/C: 105% and 94.4% and 87.1%
Compound 0.1 µM
  viability, T/C: 90.3% and 87% and 86.1%
Compound 0.316 µM
  viability, T/C: 76.8% and 81.6% and 71.8%
Compound 1 µM
  viability, T/C: 73.7% and 79.2% and 62.8%
Compound 3.16 µM
  viability, T/C: 59.8% and 63.5% and 52.7%
Compound 10 µM
  viability, T/C: 53.1% and 44% and 40.2%
Curve of compound
  pIC50: < 5.00 and 5.14 and 5.43

## C#Cc1c(F)ccc2cc(O)cc(-c3ncc4c(N5CC6CCC(C5)N6)nc(OCC56CCCN5CC(F)C6)nc4c3F)c12 (configuration not stated)
Compound 0.0316 µM
  viability, T/C: 24.6% and 29.7% and 27.3%
Compound 0.1 µM
  viability, T/C: 19.7% and 18.3% and 19.8%
Compound 0.316 µM
  viability, T/C: 18.1% and 15.8% and 16.3%
Compound 1 µM
  viability, T/C: 15% and 13.9% and 15.6%
Compound 3.16 µM
  viability, T/C: 14.4% and 11.4% and 13.7%
Compound 10 µM
  viability, T/C: 12.7% and 13.8% and 11%
Curve of compound
  pIC50: > 7.50

## O=c1[nH]cc(F)c(=O)[nH]1
Compound 0.0316 µM
  viability, T/C: 91.8% and 111% and 102%
Compound 0.1 µM
  viability, T/C: 130% and 91.7% and 100%
Compound 0.316 µM
  viability, T/C: 96.3% and 108% and 117%
Compound 1 µM
  viability, T/C: 101% and 114% and 94%
Compound 3.16 µM
  viability, T/C: 108% and 92.4% and 91%
Compound 10 µM
  viability, T/C: 70.4% and 70.2% and 62.4%
Curve of compound
  pIC50: < 5.00

## C=CCn1c(=O)c2cnc(Nc3ccc(N4CCN(C)CC4)cc3)nc2n1-c1cccc(C(C)(C)O)n1
Compound 0.00316 µM
  viability, T/C: 103% and 97% and 105%
Compound 0.01 µM
  viability, T/C: 104% and 91.6% and 100%
Compound 0.0316 µM
  viability, T/C: 88.6% and 89.3% and 105%
Compound 0.1 µM
  viability, T/C: 96.8% and 92.2% and 110%
Compound 0.316 µM
  viability, T/C: 90.3% and 78.7% and 84.2%
Compound 1 µM
  viability, T/C: 74.6% and 69.8% and 72.5%
Curve of compound
  pIC50: < 6.00

## COc1cccc2c1C(=O)c1c(O)c3c(c(O)c1C2=O)CC(O)(C(=O)CO)CC3OC1CC(N)C(O)C(C)O1 (configuration not stated)
Compound 0.0316 µM
  viability, T/C: 72.5% and 86.9% and 85.1%
Compound 0.1 µM
  viability, T/C: 60.1% and 60.5% and 89.2%
Compound 0.316 µM
  viability, T/C: 48.5% and 51.9% and 44.8%
Compound 1 µM
  viability, T/C: 31.2% and 30.2% and 27.1%
Compound 3.16 µM
  viability, T/C: 2.58% and 1.68% and 2.6%
Compound 10 µM
  viability, T/C: 11.1% and 13.1% and 12.4%
Curve of compound
  pIC50: 6.54 and 6.59 and 6.49
